{"source": "patent US20020115122A1", "about": "“Method and apparatus for automated assessment of the immunoregulatory status of the mononuclear leukocyte immune system” (priority 1998, published 2002)", "key": {"[1]": {"system": "peripheral blood mononuclear cells from normal donors", "experiment": "Antigenic determinant and IL-2 receptor expression on PHA stimulated mononuclear cells (flow cytofluorometry)", "format": "cell-based, human", "details": "for IL2R+ percentage positive / Leu 2a+ percentage positive / Leu 3a+ percentage positive / Leu 4+ percentage positive: N = 9, ± standard error; for ratio of Activated Leu-3a+: Activated Leu-2a+ cells: at 18 hours in culture with PHA", "description": "The sample of isolated cells is cultured with a standard stimulus for a period of time sufficient to allow a measurable amount of activation antigen expression, as influenced by mononuclear cell subclass interaction, to develop. In this particular embodiment, the isolated cells at a concentration of 1 million cells per milliliter are cultured with PHA at a concentration of 37.5 micrograms per milliliter, serving as a standard stimulus, for 18 hours. RPMI 1640 with fetal calf serum and glutamine serve as a culture media. The culture time is determined for each particular standard stimulus using samples from normal subjects, culturing portions of each sample for different lengths of time and determining the amount of activation antigen expression for each culture time. A measurable amount of IL-2 receptor expression is observed about 18 hours after initiating the culture with PHA. The 18 hour culture period facilitates the use of this invention as a clinical assay.\nAfter culturing, the cells are washed to remove the standard stimulus and then aliquots of cells are simultaneously incubated with two monoclonal antibodies, each directly conjugated to different fluorometrically distinguishable fluorophores. The first fluorophore-conjugated monoclonal antibody binds to a select mononuclear cell subclass antigenic determinant and the second fluorometrically distinguishable fluorophore-conjugated monoclonal antibody binds to a select cell surface activation antigen. After incubation, the cells are washed to remove excess antibody and, in this particular embodiment, fixed with 1% paraformaldehyde to halt any further cellular activity.\nThis analysis is correlated with the stimulation index as measured by a 72 hour PHA culture with tritiated thymidine uptake. Peripheral blood mononuclear cells from normal donors were isolated by density gradient centrifugation, cultured with PHA, incubated with monoclonal antibodies to select mononuclear cell subclass antigenic determinants and to IL-2 receptors and four parameter data generated and analyzed similar as described in “Detailed Description”. Monoclonal antibodies used included FITC-conjugated antibody for the antigenic determinants Leu-4, Leu-3a or Leu-2a, and PE-conjugated monoclonal antibody for IL-2 receptor. Four parameter data was collected on cells using an EPICS-V flow cytofluorometer (Coulter Corporation, Hialeah, Fla.) configured as described in “Detailed Description” with the following modification: the argon laser was used at 500 milliwatts. Forward and orthogonal light scatter parameters were analyzed to determine if the cell was within an area of interest which substantially included lymphocytes, lymphoblasts and monocytes. Green and red fluorescence data analysis was performed for such cells. The percentage of antigenic determinant and/or IL-2 receptor positive mononuclear cells, i.e., Leu-4+, Leu-3a+, Leu-2a+, IL2R+, leu-4+IL2R+, Leu-3a+IL2R+and Leu-2a+IL2R+, was determined as per the methods described herein. The results were not corrected for non-specific binding.\nFirst, mononuclear cell subclass antigenic determinant and activation antigen analysis of PHA stimulated mononuclear cells was conducted using aliquots incubated with only one monoclonal antibody.\nAnalysis of the PEA stimulated mononuclear cells was conducted using aliquots incubated with a FITC-conjugated monoclonal antibody to detect antigenic determinants and anti-IL2R-PE."}, "[2]": {"system": "peripheral blood mononuclear cells from normal donors", "experiment": "Stimulation index by tritiated thymidine uptake in PHA culture", "format": "cell-based, human", "details": "72 hours in culture with PHA", "description": "This analysis is correlated with the stimulation index as measured by a 72 hour PHA culture with tritiated thymidine uptake. Peripheral blood mononuclear cells from normal donors were isolated by density gradient centrifugation, cultured with PHA, incubated with monoclonal antibodies to select mononuclear cell subclass antigenic determinants and to IL-2 receptors and four parameter data generated and analyzed similar as described in “Detailed Description”. Monoclonal antibodies used included FITC-conjugated antibody for the antigenic determinants Leu-4, Leu-3a or Leu-2a, and PE-conjugated monoclonal antibody for IL-2 receptor. Four parameter data was collected on cells using an EPICS-V flow cytofluorometer (Coulter Corporation, Hialeah, Fla.) configured as described in “Detailed Description” with the following modification: the argon laser was used at 500 milliwatts. Forward and orthogonal light scatter parameters were analyzed to determine if the cell was within an area of interest which substantially included lymphocytes, lymphoblasts and monocytes. Green and red fluorescence data analysis was performed for such cells. The percentage of antigenic determinant and/or IL-2 receptor positive mononuclear cells, i.e., Leu-4+, Leu-3a+, Leu-2a+, IL2R+, leu-4+IL2R+, Leu-3a+IL2R+and Leu-2a+IL2R+, was determined as per the methods described herein. […]"}, "[3]": {"details": "18 hours in culture with PHA, normal donors"}, "[4]": {"details": "24 hours in culture with PHA, normal donors"}, "[5]": {"details": "48 hours in culture with PHA, normal donors"}, "[6]": {"details": "Subject D, 18 hours in culture with PHA"}, "[7]": {"details": "Subject D, 24 hours in culture with PHA"}, "[8]": {"details": "Subject D, 48 hours in culture with PHA"}, "[9]": {"details": "Subject N, 18 hours in culture with PHA"}, "[10]": {"details": "Subject N, 48 hours in culture with PHA"}}, "data": [{"substance": "phytohemagglutinin [PHA]", "values": [{"measurement": "IL2R+ percentage positive", "setting": "[1]; 18 hours in culture with PHA", "result": "61 ± 1.9", "unit": "percentage"}, {"measurement": "Leu 2a+ percentage positive", "setting": "[1]; 18 hours in culture with PHA", "result": "18 ± 1.0", "unit": "percentage"}, {"measurement": "Leu 3a+ percentage positive", "setting": "[1]; 18 hours in culture with PHA", "result": "54 ± 1.7", "unit": "percentage"}, {"measurement": "Leu 4+ percentage positive", "setting": "[1]; 18 hours in culture with PHA", "result": "79 ± 2.4", "unit": "percentage"}, {"measurement": "Activated Leu-2a+", "setting": "[1]; [3]", "result": "25 ± 6.4", "unit": "Percentage"}, {"measurement": "Activated Leu-3a+", "setting": "[1]; [3]", "result": "49 ± 8.9", "unit": "Percentage"}, {"measurement": "Activated Leu-4+", "setting": "[1]; [3]", "result": "49 ± 6.1", "unit": "Percentage"}, {"measurement": "IL2R+ percentage positive", "setting": "[1]; 24 hours in culture with PHA", "result": "71 ± 1.9", "unit": "percentage"}, {"measurement": "Leu 2a+ percentage positive", "setting": "[1]; 24 hours in culture with PHA", "result": "18 ± 0.7", "unit": "percentage"}, {"measurement": "Leu 3a+ percentage positive", "setting": "[1]; 24 hours in culture with PHA", "result": "54 ± 1.3", "unit": "percentage"}, {"measurement": "Leu 4+ percentage positive", "setting": "[1]; 24 hours in culture with PHA", "result": "77 ± 1.9", "unit": "percentage"}, {"measurement": "Activated Leu-2a+", "setting": "[1]; [4]", "result": "32 ± 4.5", "unit": "Percentage"}, {"measurement": "Activated Leu-3a+", "setting": "[1]; [4]", "result": "62 ± 8.5", "unit": "Percentage"}, {"measurement": "Activated Leu-4+", "setting": "[1]; [4]", "result": "62 ± 3.7", "unit": "Percentage"}, {"measurement": "IL2R+ percentage positive", "setting": "[1]; 48 hours in culture with PHA", "result": "80 ± 1.5", "unit": "percentage"}, {"measurement": "Leu 2a+ percentage positive", "setting": "[1]; 48 hours in culture with PHA", "result": "19 ± 2.0", "unit": "percentage"}, {"measurement": "Leu 3a+ percentage positive", "setting": "[1]; 48 hours in culture with PHA", "result": "53 ± 2.8", "unit": "percentage"}, {"measurement": "Leu 4+ percentage positive", "setting": "[1]; 48 hours in culture with PHA", "result": "81 ± 2.2", "unit": "percentage"}, {"measurement": "Activated Leu-2a+", "setting": "[1]; [5]", "result": "55 ± 8.0", "unit": "Percentage"}, {"measurement": "Activated Leu-3a+", "setting": "[1]; [5]", "result": "70 ± 9.5", "unit": "Percentage"}, {"measurement": "Activated Leu-4+", "setting": "[1]; [5]", "result": "72 ± 5.5", "unit": "Percentage"}, {"measurement": "time after initiating the culture at which a measurable amount of IL-2 receptor expression is observed", "setting": "[1]; PHA 37.5 micrograms per milliliter, 1 million cells per milliliter", "result": "about 18 hours"}, {"measurement": "Activated Leu-2a+", "setting": "[1]; [6]", "result": 32, "unit": "Percentage"}, {"measurement": "Activated Leu-3a+", "setting": "[1]; [6]", "result": 74, "unit": "Percentage"}, {"measurement": "Activated Leu-4+", "setting": "[1]; [6]", "result": 68, "unit": "Percentage"}, {"measurement": "Activated Leu-2a+", "setting": "[1]; [7]", "result": 32, "unit": "Percentage"}, {"measurement": "Activated Leu-3a+", "setting": "[1]; [7]", "result": 79, "unit": "Percentage"}, {"measurement": "Activated Leu-4+", "setting": "[1]; [7]", "result": 75, "unit": "Percentage"}, {"measurement": "Activated Leu-2a+", "setting": "[1]; [8]", "result": 76, "unit": "Percentage"}, {"measurement": "Activated Leu-3a+", "setting": "[1]; [8]", "result": 92, "unit": "Percentage"}, {"measurement": "Activated Leu-4+", "setting": "[1]; [8]", "result": 84, "unit": "Percentage"}, {"measurement": "ratio of Activated Leu-3a+: Activated Leu-2a+ cells", "setting": "[1]; Subject D", "result": 2.31}, {"measurement": "Activated Leu-2a+", "setting": "[1]; [9]", "result": 30, "unit": "Percentage"}, {"measurement": "Activated Leu-3a+", "setting": "[1]; [9]", "result": 31, "unit": "Percentage"}, {"measurement": "Activated Leu-4+", "setting": "[1]; [9]", "result": 32, "unit": "Percentage"}, {"measurement": "Activated Leu-4+", "setting": "[1]; Subject N, 24 hours in culture with PHA", "result": 59, "unit": "Percentage"}, {"measurement": "Activated Leu-2a+", "setting": "[1]; [10]", "result": 71, "unit": "Percentage"}, {"measurement": "Activated Leu-3a+", "setting": "[1]; [10]", "result": 44, "unit": "Percentage"}, {"measurement": "ratio of Activated Leu-3a+: Activated Leu-2a+ cells", "setting": "[1]; Subject N", "result": 1.03}, {"measurement": "ratio of Activated Leu-3a+: Activated Leu-2a+ cells", "setting": "[1]; Subject N, listed as PRA", "result": "approximately 1.0"}, {"measurement": "subclass preference of activation", "setting": "[1]; mononuclear cells which are Leu-3a+ versus Leu-2a+", "result": "preferentially activates helper/inducer T-cells"}, {"measurement": "SI at 72", "setting": "[2]; Subject D", "result": 535}, {"measurement": "SI at 72", "setting": "[2]; Subject N", "result": 8}]}]}
